Patent publication US11814392B2, “Chromenopyridine-based compounds and methods of making and use thereof” (Rosalind Franklin University of Medicine and Science, priority 2020, dated 2023)

What was measured:
[1] = system: RXF 393; experiment: NCI 60 five-dose screening, RXF 393
Description: (§1) The one-dose and five-dose experiments were conducted according to standard NCI protocols.
(§2) The human tumor cell lines of the cancer screening panel are grown in RPMI 1640 medium containing 5% fetal bovine serum and 2 mM L-glutamine. For a typical screening experiment, cells are inoculated into 96 well microtiter plates in 100 μL at plating densities ranging from 5,000 to 40,000 cells/well depending on the doubling time of individual cell lines. After cell inoculation, the microtiter plates are incubated at 37° C., 5% CO2, 95% air and 100% relative humidity for 24 h prior to addition of experimental drugs.
After 24 h, two plates of each cell line are fixed in situ with TCA, to represent a measurement of the cell population for each cell line at the time of drug addition (Tz). Experimental drugs are solubilized in dimethyl sulfoxide at 400-fold the desired final maximum test concentration and stored frozen prior to use. At the time of drug addition, an aliquot of frozen concentrate is thawed and diluted to twice the desired final maximum test concentration with complete medium containing 50 μg/ml gentamicin. Additional four, 10-fold or ½ log serial dilutions are made to provide a total of five drug concentrations plus control. Aliquots of 100 μl of these different drug dilutions are added to the appropriate microtiter wells already containing 100 μl of medium, resulting in the required final drug concentrations.
Following drug addition, the plates are incubated for an additional 48 h at 37° C., 5% CO2, 95% air, and 100% relative humidity. For adherent cells, the assay is terminated by the addition of cold TCA. Cells are fixed in situ by the gentle addition of 50 μl of cold 50% (w/v) TCA (final concentration, 10% TCA) and incubated for 60 minutes at 4° C. […] Bound stain is subsequently solubilized with 10 mM trizma base, and the absorbance is read on an automated plate reader at a wavelength of 515 nm. […] Using the seven absorbance measurements [time zero, (Tz), control growth, (C), and test growth in the presence of drug at the five concentration levels (Ti)], the percentage growth is calculated at each of the drug concentrations levels. Percentage growth inhibition is calculated as: [(Ti−Tz)/(C−Tz)]×100 for concentrations for which Ti>/=Tz [(Ti−Tz)/Tz]×100 for concentrations for which Ti<Tz.
(§3) Three dose response parameters are calculated for each experimental agent. […] The drug concentration resulting in total growth inhibition (TGI) is calculated from Ti=Tz. […] Values are calculated for each of these three parameters if the level of activity is reached; however, if the effect is not reached or is exceeded, the value for that parameter is expressed as greater or less than the maximum or minimum concentration tested.

[2] = system: K-562; experiment: NCI 60 five-dose screening, K-562; details: Homo sapiens, K562, 48 h
Description: (§4) The National Cancer Institute's Developmental Therapeutic preclinical 60 human cancer cell lines were used for an in vitro screen. […] The one-dose and five-dose experiments were conducted according to standard NCI protocols.
The human tumor cell lines of the cancer screening panel are grown in RPMI 1640 medium containing 5% fetal bovine serum and 2 mM L-glutamine. For a typical screening experiment, cells are inoculated into 96 well microtiter plates in 100 μL at plating densities ranging from 5,000 to 40,000 cells/well depending on the doubling time of individual cell lines. […]
(§5) Following drug addition, the plates are incubated for an additional 48 h at 37° C., 5% CO2, 95% air, and 100% relative humidity. […] Bound stain is subsequently solubilized with 10 mM trizma base, and the absorbance is read on an automated plate reader at a wavelength of 515 nm. […] Using the seven absorbance measurements [time zero, (Tz), control growth, (C), and test growth in the presence of drug at the five concentration levels (Ti)], the percentage growth is calculated at each of the drug concentrations levels. Percentage growth inhibition is calculated as: [(Ti−Tz)/(C−Tz)]×100 for concentrations for which Ti>/=Tz [(Ti−Tz)/Tz]×100 for concentrations for which Ti<Tz.
Three dose response parameters are calculated for each experimental agent. […]

[3] = system: 60 human cancer cell lines; experiment: NCI 60 One-Dose Screen; format: cell-based
From the text: The one-dose assay reported the growth relative to the no-drug control, and relative to the time zero number of cells. This allowed for the detection of both growth inhibition (values between 0 and 100) and lethality (values less than 0). For example, a value of 100 means no growth inhibition. A value of 40 would mean 60% growth inhibition. A value of 0 means no net growth over the course of the experiment. A value of −40 would mean 40% lethality. A value of −100 means all cells are dead.

[4] = system: OVCAR-3; experiment: NCI 60 five-dose screening, OVCAR-3; format: cell-based, human
[5] = system: SF-539; experiment: NCI 60 five-dose screening, SF-539
Description: as §4, §2
(§6) After 24 h, two plates of each cell line are fixed in situ with TCA, to represent a measurement of the cell population for each cell line at the time of drug addition (Tz). […]
as §5, §3

[6] = system: HCC-2998; experiment: NCI 60 five-dose screening, HCC-2998
Description: as §4, §2, §6, §5, §3

[7] = system: MDA-MB-468; experiment: NCI 60 five-dose screening, MDA-MB-468; format: cell-based, human
[8] = system: KM12; experiment: NCI 60 five-dose screening, KM12
Description: as §4, §2, §6, §5, §3

[9] = molecular target: T1, PMCT (Homo sapiens, UniProt Q86YT5); experiment: PMCT inhibition, citrate transport assay of whole HEK293T cells; format: cell-based
T1 construct: expressed in transfected cells; host or cells: HEK293T cells transfected with pcDNA3.1(+)-SLC13A5 using PEI

[10] = system: MDA-MB-231/ATCC; experiment: NCI 60 five-dose screening, MDA-MB-231/ATCC
Description: as §4, §2, §6, §5, §3

[11] = system: BT-549; experiment: NCI 60 five-dose screening, BT-549
Description: as §4, §2, §6, §5, §3

[12] = system: HT29; experiment: NCI 60 five-dose screening, HT29
Description: as §4, §2, §6, §5, §3

[13] = system: SW-620; experiment: NCI 60 five-dose screening, SW-620
Description: as §4, §2, §6, §5, §3

[14] = system: A549/ATCC; experiment: NCI 60 five-dose screening, A549/ATCC; format: cell-based, human; details: A549/ATCC (Non-small cell Lung), 48 h
[15] = system: SNB-75; experiment: NCI 60 five-dose screening, SNB-75
Description: as §4, §2, §6, §5, §3

[16] = system: RPMI-8226; experiment: NCI 60 five-dose screening, RPMI-8226
Description: as §4, §2, §6, §5, §3

[17] = system: SF-295; experiment: NCI 60 five-dose screening, SF-295
Description: as §4, §2, §6, §5, §3

[18] = system: NCI-H522; experiment: NCI 60 five-dose screening, NCI-H522
Description: as §4, §2, §6, §5, §3

[19] = system: ACHN; experiment: NCI 60 five-dose screening, ACHN; details: 48 h
Description: as §1, §2
After 24 h, two plates of each cell line are fixed in situ with TCA, to represent a measurement of the cell population for each cell line at the time of drug addition (Tz). Experimental drugs are solubilized in dimethyl sulfoxide at 400-fold the desired final maximum test concentration and stored frozen prior to use. […]
as §5, §3

[20] = system: SK-MEL-28; experiment: NCI 60 five-dose screening, SK-MEL-28
Description: as §4, §2, §6, §5, §3

[21] = system: UACC-257; experiment: NCI 60 five-dose screening, UACC-257
Description: as §4, §2, §6, §5, §3

[22] = system: MDA-MB-435; experiment: NCI 60 five-dose screening, MDA-MB-435
Description: as §4, §2, §6, §5, §3

[23] = system: UO-31; experiment: NCI 60 five-dose screening, UO-31
Description: as §4, §2, §6, §5, §3

[24] = RXF 393 (Renal Cancer), five-dose, 48 h

T1 sequence (Q86YT5 whole entry): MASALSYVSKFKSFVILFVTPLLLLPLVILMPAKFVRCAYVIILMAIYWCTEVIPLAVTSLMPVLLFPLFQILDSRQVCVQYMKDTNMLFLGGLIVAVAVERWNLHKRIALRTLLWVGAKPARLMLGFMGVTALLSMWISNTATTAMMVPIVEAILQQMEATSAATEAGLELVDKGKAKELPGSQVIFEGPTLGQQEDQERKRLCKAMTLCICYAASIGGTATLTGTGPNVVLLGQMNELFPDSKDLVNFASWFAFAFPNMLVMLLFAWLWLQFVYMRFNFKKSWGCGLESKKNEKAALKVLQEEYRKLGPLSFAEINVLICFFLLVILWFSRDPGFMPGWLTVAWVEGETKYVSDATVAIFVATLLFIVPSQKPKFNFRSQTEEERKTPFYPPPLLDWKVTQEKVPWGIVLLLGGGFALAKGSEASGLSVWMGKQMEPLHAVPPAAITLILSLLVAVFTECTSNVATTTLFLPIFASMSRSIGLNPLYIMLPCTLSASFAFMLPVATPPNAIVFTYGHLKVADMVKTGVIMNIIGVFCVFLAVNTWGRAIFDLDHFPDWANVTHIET

SMILES: COc1ccc(SC2c3cc(OC)c(OC)cc3Oc3nc(N)c(C#N)c(N)c32)cc1 (stereo not shown) [Compound 1, 2,4-diamino-7,8-dimethoxy-5-((4-methoxyphenyl)thio)-5H-chromeno[2,3-b]pyridine-3-carbonitrile]
- GI50 ([1]; Homo sapiens, RXF 393, 48 h, RXF 393 (Renal Cancer), five-dose, 48 h): 0.45 µM
- CC50 ([1]; Homo sapiens, RXF 393, 48 h, read-out: LC50): 4.52 µM
- GI50 [1, 24]: 0.74 µM
- TGI [1, 24]: 2.01 µM
- GI50 [2]: 0.44 µM
- CC50 ([2]; read-out: LC50): > 100 µM
- growth inhibition in the One-Dose Screen [3]: significant growth inhibition
- CC50 ([4]; Homo sapiens, OVCAR-3, 48 h, read-out: LC50): 5.03 µM
- GI50 ([4]; Homo sapiens, OVCAR-3 (Ovarian Cancer), five-dose, 48 h): 1.06 µM
- TGI ([4]; OVCAR-3 (Ovarian Cancer), five-dose, 48 h): 2.31 µM
- GI50 ([5]; Homo sapiens, SF-539, 48 h): 1.38 µM
- CC50 ([5]; Homo sapiens, SF-539, 48 h, read-out: LC50): 5.2 µM
- TGI ([5]; SF-539 (CNS Cancer), five-dose, 48 h): 2.68 µM
- TGI ([6]; HCC-2998 (Colon Cancer), five-dose, 48 h): 3.12 µM
- GI50 ([6]; Homo sapiens, HCC 2998, 48 h): 1.72 µM
- CC50 ([6]; Homo sapiens, HCC 2998, 48 h, read-out: LC50): 5.67 µM
- CC50 ([7]; Homo sapiens, MDA-MB-468, 48 h, read-out: LC50): 5.62 µM
- GI50 ([7]; Homo sapiens, MDA-MB-468 (Breast Cancer), five-dose, 48 h): 0.32 µM
- TGI ([7]; MDA-MB-468 (Breast Cancer), five-dose, 48 h): 1.53 µM
- GI50 ([8]; Homo sapiens, KM12, 48 h): 1.53 µM
- CC50 ([8]; Homo sapiens, KM12, 48 h, read-out: LC50): 6.06 µM
- TGI ([8]; KM12 (Colon Cancer), five-dose, 48 h): 3.05 µM
- IC50 ([9]; HEK293T cells): 9.8 µM
- dose-dependence of PMCT inhibition ([9]; HEK293T cells, even at moderate concentrations (FIG. 1)): dose-dependent inhibition
- inhibition at 5 µM ([9]; HEK-293T, read-out: PMCT Inhibition, Inhibitor Concentration 5 μM, HEK293T cells): 50.1%
- inhibition at 20 µM ([9]; HEK-293T, read-out: PMCT Inhibition, Inhibitor Concentration 20 μM, HEK293T cells): 75.6%
- inhibition at 40 µM ([9]; HEK-293T, read-out: PMCT Inhibition, Inhibitor Concentration 40 μM, HEK293T cells): 50.2%
- inhibition at 200 µM ([9]; HEK-293T, read-out: PMCT Inhibition, Inhibitor Concentration 200 μM, HEK293T cells): 32.1%
- inhibition at 1000 µM ([9]; HEK-293T, read-out: PMCT Inhibition, Inhibitor Concentration 1000 μM, HEK293T cells): 62.8%
- GI50 ([10]; Homo sapiens, MDA-MB-231, 48 h): 1.43 µM
- CC50 ([10]; Homo sapiens, MDA-MB-231, 48 h, read-out: LC50): 5.51 µM
- TGI ([10]; MDA-MB-231/ATCC (Breast Cancer), five-dose, 48 h): 2.81 µM
- TGI ([11]; BT-549 (Breast Cancer), five-dose, 48 h): 2.19 µM
- GI50 ([11]; Homo sapiens, BT-549, 48 h): 1.02 µM
- CC50 ([11]; Homo sapiens, BT-549, 48 h, read-out: LC50): 4.72 µM
- TGI ([12]; HT29 (Colon Cancer), five-dose, 48 h): 5.04 µM
- GI50 ([12]; Homo sapiens, HT-29, 48 h): 2.16 µM
- CC50 ([12]; Homo sapiens, HT-29, 48 h, read-out: LC50): > 100 µM
- GI50 ([13]; Homo sapiens, SW-620, 48 h): 1.24 µM
- CC50 ([13]; Homo sapiens, SW-620, 48 h, read-out: LC50): 8.29 µM
- TGI ([13]; SW-620 (Colon Cancer), five-dose, 48 h): 3.20 µM
- TGI [14]: 3.84 µM
- GI50 ([14]; Homo sapiens): 2.01 µM
- GI50 ([15]; Homo sapiens, SNB-75, 48 h): 1.31 µM
- CC50 ([15]; Homo sapiens, SNB-75, 48 h, read-out: LC50): 5.24 µM
- TGI ([15]; SNB-75 (CNS Cancer), five-dose, 48 h): 2.62 µM
- GI50 ([16]; Homo sapiens, RPMI-8226, 48 h): 0.35 µM
- CC50 ([16]; Homo sapiens, RPMI-8226, 48 h, read-out: LC50): > 100 µM
- TGI ([16]; RPMI-8226 (Leukemia), five-dose, 48 h): 1.81 µM
- GI50 ([17]; Homo sapiens, SF-295, 48 h): 1.6 µM
- CC50 ([17]; Homo sapiens, SF-295, 48 h, read-out: LC50): 5.48 µM
- TGI ([17]; SF-295 (CNS Cancer), five-dose, 48 h): 2.96 µM
- GI50 ([18]; Homo sapiens, NCI-H522, 48 h): 1.37 µM
- CC50 ([18]; Homo sapiens, NCI-H522, 48 h, read-out: LC50): 5.6 µM
- TGI ([18]; NCI-H522 (Non-small cell Lung), five-dose, 48 h): 2.77 µM
- TGI ([19]; ACHN (Renal Cancer), five-dose): 3.12 µM
- GI50 ([19]; Homo sapiens, ACHN): 1.74 µM
- CC50 ([19]; Homo sapiens, ACHN, read-out: LC50): 5.58 µM
- GI50 ([20]; Homo sapiens, SK-MEL-28, 48 h): 1.47 µM
- CC50 ([20]; Homo sapiens, SK-MEL-28, 48 h, read-out: LC50): 5.78 µM
- TGI ([20]; SK-MEL-28 (Melanoma), five-dose, 48 h): 2.91 µM
- GI50 ([21]; Homo sapiens, UACC-257, 48 h): 1.87 µM
- CC50 ([21]; Homo sapiens, UACC-257, 48 h, read-out: LC50): 5.9 µM
- TGI ([21]; UACC-257 (Melanoma), five-dose, 48 h): 3.32 µM
- GI50 ([22]; Homo sapiens, MDA-MB-435, 48 h): 1.5 µM
- CC50 ([22]; Homo sapiens, MDA-MB-435, 48 h, read-out: LC50): 5.7 µM
- TGI ([22]; MDA-MB-435 (Melanoma), five-dose, 48 h): 2.92 µM
- GI50 ([23]; Homo sapiens, UO-31, 48 h): 1.34 µM
- CC50 ([23]; Homo sapiens, UO-31, 48 h, read-out: LC50): 5.11 µM
- TGI ([23]; UO-31 (Renal Cancer), five-dose, 48 h): 2.61 µM
